Assay results reported in PMC2796783, “Pharmacological Characterization of Inositol 1,4,5-tris Phosphate Receptors in Human Platelet Membranes” (Cardiovascular Psychiatry and Neurology, 2009).

Assays:
[1] = tested on: T1, Ins(1,4,5)P3 receptors in human platelet membranes; assay: displacement of […] [3H]Ins([…])P3, filtration, log probit analysis; type: binding; settings: 20 nM [3H]Ins(1,4,5)P3, 50 mM Tris-HCl pH 8.5, 1 mM EDTA, 4 °C, 10 min
T1 construct: gene ITPR1; native receptor in crude platelet membranes of healthy human subjects; not purified; tetrameric channel

[2] = tested on: T1, Ins(1,4,5)P3 receptors in human platelet membranes; assay: radioligand saturation binding, filtration, Scatchard (EBDA); settings: 50 mM Tris-HCl pH 8.5, 1 mM EDTA, 1 mM 2-mercaptoethanol, 4 °C, 10 min; labelled compound; crude platelet membranes; single site

For `O=P(O)(O)O[C@H]1[C@@H](O)[C@H](O)[C@@H](OP(=O)(O)O)[C@H](OP(=O)(O)O)[C@H]1O` [D-Ins(2,4,5)P3], the IC50 [1] was 1.9 ± 0.68 µM.
With `O=P(O)(O)O[C@@H]1[C@H](O)[C@H](O)[C@@H](OP(=O)(O)O)[C@H](OP(=O)(O)O)[C@H]1O` [[^3H]Ins(1,4,5)P3] the Kd [2] was 0.0221 ± 0.00234 µM and the IC50 ([1]; error exceeds the value) was 0.3 ± 0.5 µM.
In the case of `O=P(O)(O)O[C@@H]1[C@@H](O)[C@H](OP(=O)(O)O)[C@@H](OP(=O)(O)O)[C@H](O)[C@@H]1O` [L-Ins(1,4,5)P3], the IC50 [1] is reported as 354 ± 37 µM.
Compound `O=P(O)(O)O[C@@H]1[C@@H](O)[C@@H](O)[C@@H](OP(=O)(O)OC[C@H](O)CO)[C@H](O)[C@H]1OP(=O)(O)O` [GPIP2] has an IC50 [1] of 4.97 ± 1.83 µM.
